The assay relates to p-IKKa levels in L363 (NIK translocated multiple myeloma) cells. The assay can be described thus: Assay 2: Effect of compounds on p-IKKa levels in L363 (NIK translocated multiple myeloma) cells. The format is cell-based. As to conditions: Homo sapiens, L-363, 6 h, read-out: Assay 2 IC50 (nM), p-IKKa (Ser 176/180) in BAFF stimulated L363 cells with MG132, 6 h; average if tested more than once. The procedure, abridged: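 L363 cells incubated overnight ± 250 ng/ml BAFF, then 6 h at 37 °C with compound (0.3% DMSO) ± 10 μM MG132. Lysates assayed for p-IKKa (Ser176/180) by AlphaLISA SureFire. IC50 from sigmoidal fit of % inhibition normalized to BAFF/MG132-stimulated and unstimulated controls.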
For `CN1CC[C@@](O)(c2cc(-c3cccc(-c4ccnc(Nc5cnn(C)c5F)n4)n3)no2)C1=O` [Example 329, (R)-3-(3-(6-(2-((5-Fluoro-1-methyl-1H-pyrazol-4-yl)amino)pyrimidin-4-yl)pyridin-2-yl)isoxazol-5-yl)-3-hydroxy-1-methylpyrrolidin-2-one], the IC50 is less than 50 nM.
Under `CN1CC[C@@](O)(c2cc(-c3cccc(-c4ccnc(Nc5ccncc5F)n4)n3)no2)C1=O` [Example 330, (R)-3-(3-(6-(2-((3-Fluoropyridin-4-yl)amino)pyrimidin-4-yl)pyridin-2-yl)isoxazol-5-yl)-3-hydroxy-1-methylpyrrolidin-2-one] stands less than 50 nM; under `CN1CC[C@@](O)(c2cc(-c3cccc(-c4ccnc(Nc5ncccc5F)n4)n3)no2)C1=O` [Example 331, (R)-3-(3-(6-(2-((3-Fluoropyridin-2-yl)amino)pyrimidin-4-yl)pyridin-2-yl)isoxazol-5-yl)-3-hydroxy-1-methylpyrrolidin-2-one], more than 500 nM.
In the case of `Cc1ccc(Nc2nccc(-c3cccc(-c4cc([C@]5(O)CCN(C)C5=O)on4)n3)n2)cn1` [Example 332, (R)-3-Hydroxy-1-methyl-3-(3-(6-(2-((6-methylpyridin-3-yl)amino)pyrimidin-4-yl)pyridin-2-yl)isoxazol-5-yl)pyrrolidin-2-one], the IC50 was 50 to 500 nM.
Consider `Cc1ccncc1Nc1nccc(-c2cccc(-c3cc([C@]4(O)CCN(C)C4=O)on3)n2)n1` [Example 333, (R)-3-Hydroxy-1-methyl-3-(3-(6-(2-((4-methylpyridin-3-yl)amino)pyrimidin-4-yl)pyridin-2-yl)isoxazol-5-yl)pyrrolidin-2-one], for which the IC50 is 50 to 500 nM.
Consider `Cc1nccc(Nc2nccc(-c3cccc(-c4cc([C@]5(O)CCN(C)C5=O)on4)n3)n2)c1F` [Example 334, (R)-3-(3-(6-(2-((3-Fluoro-2-methylpyridin-4-yl)amino)pyrimidin-4-yl)pyridin-2-yl)isoxazol-5-yl)-3-hydroxy-1-methylpyrrolidin-2-one], for which the IC50 was less than 50 nM.
To `CCn1cc(Nc2nccc(-c3cccc(-n4cc([C@]5(O)CCN(C)C5=O)nn4)n3)n2)cn1` [Example 335, (R)-3-(1-(6-(2-((1-Ethyl-1H-pyrazol-4-yl)amino)pyrimidin-4-yl)pyridin-2-yl)-1H-1,2,3-triazol-4-yl)-3-hydroxy-1-methylpyrrolidin-2-one] belongs less than 50 nM; to `CO[C@@H]1CCOC[C@H]1Nc1nccc(-c2cccc(-c3cc([C@]4(O)CCN(C)C4=O)on3)n2)n1` [Example 338, (R)-3-Hydroxy-3-(3-(6-(2-(((trans)-4-methoxytetrahydro-2H-pyran-3-yl)amino)pyrimidin-4-yl)pyridin-2-yl)isoxazol-5-yl)-1-methylpyrrolidin-2-one], more than 500 nM; to `CN1CC[C@@](O)(c2cc(-c3cccc(-c4ccnc(N[C@@H]5COC[C@@H]5F)n4)n3)no2)C1=O` [Example 339, (R)-3-(3-(6-(2-(((cis)-4-Fluorotetrahydrofuran-3-yl)amino)pyrimidin-4-yl)pyridin-2-yl)isoxazol-5-yl)-3-hydroxy-1-methylpyrrolidin-2-one], 50 to 500 nM.
To `CN1CC[C@@](O)(c2cc(-c3cccc(-c4ccnc(NCC5CCOCC5)n4)n3)no2)C1=O` [Example 340, (R)-3-Hydroxy-1-methyl-3-(3-(6-(2-(((tetrahydro-2H-pyran-4-yl)methyl)amino)pyrimidin-4-yl)pyridin-2-yl)isoxazol-5-yl)pyrrolidin-2-one] belongs 50 to 500 nM; to `CN1CC[C@@](O)(c2cc(-c3cccc(-c4ccnc(N[C@@H]5COC[C@H]5F)n4)n3)no2)C1=O` [Example 342, (R)-3-(3-(6-(2-(((trans)-4-Fluorotetrahydrofuran-3-yl)amino)pyrimidin-4-yl)pyridin-2-yl)isoxazol-5-yl)-3-hydroxy-1-methylpyrrolidin-2-one], 50 to 500 nM.
To `C[C@H](F)CCNc1nccc(-c2cccc(-c3cc([C@]4(O)CCN(C)C4=O)on3)n2)n1` [Example 344, (R)-3-(3-(6-(2-(((S)-3-Fluorobutyl)amino)pyrimidin-4-yl)pyridin-2-yl)isoxazol-5-yl)-3-hydroxy-1-methylpyrrolidin-2-one] belongs 50 to 500 nM; to `CN1CC[C@@](O)(c2cc(-c3cccc(-c4ccnc(NC[C@@H]5C[C@@H]5F)n4)n3)no2)C1=O` [Example 345, (R)-3-(3-(6-(2-((((cis)-2-Fluorocyclopropyl)methyl)amino)pyrimidin-4-yl)pyridin-2-yl)isoxazol-5-yl)-3-hydroxy-1-methylpyrrolidin-2-one], 50 to 500 nM.
In the case of `C[C@@H](CF)Nc1nccc(-c2cccc(-c3cc([C@]4(O)CCN(C)C4=O)on3)n2)n1` [Example 348, (R)-3-(3-(6-(2-(((S)-1-Fluoropropan-2-yl)amino)pyrimidin-4-yl)pyridin-2-yl)isoxazol-5-yl)-3-hydroxy-1-methylpyrrolidin-2-one], the IC50 fell in the range of 50 to 500 nM.
To `CN1CC[C@@](O)(c2cc(-c3cccc(-c4ccnc(N[C@H]5C[C@H](F)C5)n4)n3)no2)C1=O` [Example 349, (R)-3-(3-(6-(2-(((1r,3R)-3-Fluorocyclobutyl)amino)pyrimidin-4-yl)pyridin-2-yl)isoxazol-5-yl)-3-hydroxy-1-methylpyrrolidin-2-one] belongs 50 to 500 nM; to `CN1CC[C@@](O)(c2cc(-c3cccc(-c4ccnc(NC5CC56CCOC6)n4)n3)no2)C1=O` (stereo partly drawn) [Example 350, (3R)-3-(3-(6-(2-((5-Oxaspiro[2.4]heptan-1-yl)amino)pyrimidin-4-yl)pyridin-2-yl)isoxazol-5-yl)-3-hydroxy-1-methylpyrrolidin-2-one], more than 500 nM; to `CO[C@H]1C[C@@H](Nc2nccc(-c3cccc(-c4cc([C@]5(O)CCN(C)C5=O)on4)n3)n2)C1` [Example 351, (R)-3-Hydroxy-3-(3-(6-(2-(((1s,3S)-3-methoxycyclobutyl)amino)pyrimidin-4-yl)pyridin-2-yl)isoxazol-5-yl)-1-methylpyrrolidin-2-one], 50 to 500 nM.
Under `CCO[C@@H]1COC[C@H]1Nc1nccc(-c2cccc(-c3cc([C@]4(O)CCN(C)C4=O)on3)n2)n1` [Example 352, (R)-3-(3-(6-(2-(((trans)-4-Ethoxytetrahydrofuran-3-yl)amino)pyrimidin-4-yl)pyridin-2-yl)isoxazol-5-yl)-3-hydroxy-1-methylpyrrolidin-2-one] stands 50 to 500 nM; under `C[C@H](CF)Nc1nccc(-c2cccc(-c3cc([C@]4(O)CCN(C)C4=O)on3)n2)n1` [Example 353, (R)-3-(3-(6-(2-(((R)-1-Fluoropropan-2-yl)amino)pyrimidin-4-yl)pyridin-2-yl)isoxazol-5-yl)-3-hydroxy-1-methylpyrrolidin-2-one], 50 to 500 nM.
To `CO[C@@H]1COC[C@H]1Nc1nccc(-c2cccc(-c3cc([C@]4(O)CCN(C)C4=O)on3)n2)n1` [Example 354, (R)-3-Hydroxy-3-(3-(6-(2-(((3R,4S)-4-methoxytetrahydrofuran-3-yl)amino)pyrimidin-4-yl)pyridin-2-yl)isoxazol-5-yl)-1-methylpyrrolidin-2-one] belongs 50 to 500 nM; to `CO[C@H](C)CNc1nccc(-c2cccc(-c3cc([C@]4(O)CCN(C)C4=O)on3)n2)n1` [Example 356, (R)-3-Hydroxy-3-(3-(6-(2-(((R)-2-methoxypropyl)amino)pyrimidin-4-yl)pyridin-2-yl)isoxazol-5-yl)-1-methylpyrrolidin-2-one], 50 to 500 nM; to `CN1CC[C@@](O)(c2cc(-c3cccc(-c4ccnc(N[C@@H]5CCCC[C@@H]5O)n4)n3)no2)C1=O` [Example 357, (R)-3-Hydroxy-3-(3-(6-(2-(((1R,2S)-2-hydroxycyclohexyl)amino)pyrimidin-4-yl)pyridin-2-yl)isoxazol-5-yl)-1-methylpyrrolidin-2-one], more than 500 nM.
As to `CN1CC[C@@](O)(c2cc(-c3cccc(-c4ccnc(NC[C@H]5CCO5)n4)n3)no2)C1=O` [Example 358, (R)-3-Hydroxy-1-methyl-3-(3-(6-(2-((((R)-oxetan-2-yl)methyl)amino)pyrimidin-4-yl)pyridin-2-yl)isoxazol-5-yl)pyrrolidin-2-one], the IC50 is more than 500 nM.
As for `CN1CC[C@@](O)(c2cc(-c3cccc(-c4ccnc(NCCC(F)F)n4)n3)no2)C1=O` [Example 359, (R)-3-(3-(6-(2-((3,3-Difluoropropyl)amino)pyrimidin-4-yl)pyridin-2-yl)isoxazol-5-yl)-3-hydroxy-1-methylpyrrolidin-2-one], the IC50 lay in the range of 50 to 500 nM.
Under `CN1CC[C@@](O)(c2cc(-c3cccc(-c4ccnc(NC[C@@H]5CCO5)n4)n3)no2)C1=O` [Example 360, (R)-3-Hydroxy-1-methyl-3-(3-(6-(2-((((S)-oxetan-2-yl)methyl)amino)pyrimidin-4-yl)pyridin-2-yl)isoxazol-5-yl)pyrrolidin-2-one] stands more than 500 nM.
In the case of `CN1CC[C@@](O)(c2cc(-c3cccc(-c4ccnc(N[C@@H]5CC6CCC5O6)n4)n3)no2)C1=O` (stereo partly drawn) [Example 361, (3R)-3-(3-(6-(2-(((cis)-7-Oxabicyclo[2.2.1]heptan-2-yl)amino)pyrimidin-4-yl)pyridin-2-yl)isoxazol-5-yl)-3-hydroxy-1-methylpyrrolidin-2-one], the IC50 fell in the range of 50 to 500 nM.
Take `CO[C@@H](C)CNc1nccc(-c2cccc(-c3cc([C@]4(O)CCN(C)C4=O)on3)n2)n1` [Example 362, (R)-3-Hydroxy-3-(3-(6-(2-(((S)-2-methoxypropyl)amino)pyrimidin-4-yl)pyridin-2-yl)isoxazol-5-yl)-1-methylpyrrolidin-2-one]: the IC50 is 50 to 500 nM.
To `C[C@@H](Nc1nccc(-c2cccc(-c3cc([C@]4(O)CCN(C)C4=O)on3)n2)n1)c1ccccn1` [Example 363, (R)-3-Hydroxy-1-methyl-3-(3-(6-(2-(((R)-1-(pyridin-2-yl)ethyl)amino)pyrimidin-4-yl)pyridin-2-yl)isoxazol-5-yl)pyrrolidin-2-one] belongs 50 to 500 nM.
